Reference: US20230098995A1 (SYNGENTA CROP PROTECTION AG, priority 2020, published 2023)

Tested on: Corynespora cassiicola
Test: Corynespora cassiicola liquid culture growth inhibition (microtiter plate, PDB)
Assay type: cell-based
Settings: photometric at 620 nm after 3-4 days at 24 C, compared to untreated control
Description: Conidia of the fungus from cryogenic storage were directly mixed into nutrient broth (PDB potato dextrose broth). A DMSO solution of the test compounds was placed into a microtiter plate (96-well format) and the nutrient broth containing the fungal spores was added to it. The test plates were incubated at 24 C and the inhibition of growth (% control of Corynespora cassiicola) was determined photometrically after 3-4 days at 620 nm. The activity of a compound is derived by comparing the inhibition of growth in the treated test solution to the growth in the untreated check. The concentration of the compounds was 6.7, 2.2, 0.74, 0.25, 0.082 and 0.027 ppm.

| Compound | inhibition at 6.7 ppm [%] |
| --- | --- |
| C[C@](Cc1ccccc1)(CC(F)(F)F)NC(=O)c1cnc2c(F)cccc2c1 [Compound 11] | ≥ 70 |
| CC(C)CC(C)(Cc1ccccc1)NC(=O)c1cnc2c(F)cccc2c1 (centres unmarked) [Compound 2] | ≥ 70 |
| C=C(Cl)C[C@](C)(Cc1ccccc1)NC(=O)c1cnc2c(F)cccc2c1 [Compound 13] | ≥ 70 |
| CC(C)C[C@](C)(Cc1ccccc1)NC(=O)c1cnc2c(F)cccc2c1 [Compound 9] | ≥ 70 |
| C[C@@](Cc1ccccc1)(CC(F)(F)F)NC(=O)c1cnc2c(F)cccc2c1 [Compound 12] | ≥ 70 |
| CC(C)CC(C)(Cc1cccc(F)c1)NC(=O)c1cnc2c(F)cccc2c1 (centres unmarked) [Compound 6] | ≥ 70 |
| C=C(Cl)CC(C)(Cc1ccccc1)NC(=O)c1cnc2c(F)cccc2c1 (centres unmarked) [Compound 4] | ≥ 70 |
| CC(C)C[C@@](C)(Cc1ccccc1)NC(=O)c1cnc2c(F)c(F)ccc2c1 [Compound 16] | ≥ 70 |
